The values that follow are results of earlier work, collected in publication PMC6024615, “Effect of Biliary Drainage on the Toxicity and Toxicokinetics of Amanita exitialis in Beagles” (Toxins, 2018).

For data set [1] the following is noted: intravenous injection, general anesthesia, radioactivity; cited from earlier work. On the procedure: In previous studies, the radioactivity of labeled amatoxins in the serum of dogs or pigs was determined after an intravenous injection of amatoxins; bile was collected and measured using tubes tied to the bile duct under general anesthesia. More than 80% of 14C-methyl-γ-amanitin (14C-A) was eliminated in the urine, with less than 10% in the bile. Different toxin exposure patterns might result in different toxicokinetic data. 14C-A and 3H-O-methyl-dehydroxymethyl-α-amanitin (3H-A) were used for toxicokinetic studies in the animals; the animals were under general anesthesia du ...

The conditions of data set [2]: human and rats; cited from earlier work. On the procedure:
Vesconi et al. found amatoxins were detectable in the serum of 65% patients within 30 h after ingestion of Amanita phalloides. In another study in patients intoxicated with Amanita phalloides, amatoxins were detectable in the plasma of most patients within 36 h after ingestion. […] These toxins were rapidly detected (30 min) in plasma and ...

In the case of 14C-methyl-γ-amanitin, in data set [1], the “share eliminated in the bile” value was “less than 10%” and the “share eliminated in the urine” value is “More than 80%”. vitamin B12: the “reduction in absorption from the intestinal lumen caused by bile exclusion” value in data set [2] is 50–60%.
